Data set [1] deals with persistent effusions in one or both knees.
Method: In a second clinical experimental course, 75 patients, presenting with persistent effusions in one or both knees were given 500 mg of rifamycin SV (in the form of a L-arginine salt) every seven days, still by intra-articular injection.
Data set [2] in a line: pH of aqueous solutions of the salts. The data set is classed as physicochemical.
In data set [3] the test system is joint sites other than the knee (wrist, hand's metacarpophalangeal and interphalangeal joints, tibiotarsal joints, etc). As to the kind of experiment: Infiltrations into joint sites other than the knee. The data set is classed as in vivo, patients. The note with it: approximately 300 joints. The text has this: (§1) Two of the 75 patients had to stop the treatment because of the above mentioned untoward side effect.

Data set [4] in a line: Comparison of synovial fluid rifamycin levels, sodium salt vs arginine salt (Table 2). In kind it is in vivo, patients. The note with it: equivalent to 500 mg rifamycin SV; for concentration at 5 min / concentration at 1 h / concentration at 2 h / concentration at 4 h / concentration at 8 h: human, synovial fluid, mean of eight determinations.
Data set [5] can be described thus: Rifamycin levels in monoarthritic guinea-pig after intra-articular administration. The data set is classed as in vivo. The note with it: monoarthritic guinea-pig (gamma-globulin arthritis). The text has this:
The observation that in the monoarthritic guinea-pig (gamma-globulin arthritis) rifamycin arginine salt levels, 10 times higher than in the case of rifamycin sodium salt, can be observed following an intra-articular administration of either rifamycin sodium salt or arginine salt, proves in full agreement with the above mentioned datum.

A short description of the next data set: Solubility of the salts. The data set is classed as physicochemical.
The next data set has as its system rabbit's spinal sac. Kind of data set: Local tolerability after injection into the rabbit's spinal sac. The note with it: 60-mg injection once daily for three consecutive days, versus commercial solutions of rifamycin SV. In kind it is in vivo.
A short description of another data set: clinical. The note with it: in vivo. The procedure: (§2) The rifamycin levels, present in the biological fluids of treated patients, were assayed by high pressure liquid chromatography (HPLC), a method more reliable and reproducible than the ultraviolet or microbiological method.
(§3) The synovial fluid samples were directly injected into the chromatograph after precipitation of the proteins with acetonitrile on the other hand, the serum samples had to be previously extracted with ethyl acetate at an acid pH.
(§4) A Hewlett Packard chromatograph is used, model 104 B, fitted with a fixed wave length detector (254 nm); RP 18 (10 mc) column, 25-cm length, […].
(§5) The following eluent is used: (A) an 80:20 mixture of 0.01 M phosphate buffer at pH 7 and acetonitrile; (B) acetonitrile. The gradient shifts from the 10 percent of B to the 70 percent of B within 15 minutes; the flow is 1.6 ml/minute.
(§6) The temperature of the oven is 35° C.; that of the eluent A is 60 percent and the one of the eluent B 40 percent.
(§7) Rifamycin SV and its oxidized form, ie rifamycin S, are used as standard.
In order to establish the standard lines in the synovial fluid, 500 mg of each single compound are dissolved in one liter exactly of a 1:1 water-methanol mixture.
(§8) The two absorption lines are made up injecting 5 mcl, 10 mcl and 15 mcl of said solutions into the chromatograph.
Determination of rifamycin SV in the synovial fluid
This determination is directly carried out on the deproteinized synovial fluid. 200 mcl of sample are introduced into a centrifuge test tube, and added with 2 ml of acetonitrile.
The resulting solution is stirred, and allowed to decant; 20 mcl of supernatant fluid are thereafter injected into the chromatograph. The samples are analyzed immediately in order to prevent the oxidation of rifamycin SV into rifamycin S.
(§9) The data are expressed as mcg/ml.

Data set [6] is described as follows: Stability of solutions and lyophilyzed salts. The data set is classed as physicochemical. The note with it: dry state.
For another data set, the system named is rheumatoid synovitis. As to the kind of experiment: Clinical trials (open and double-blind) in rheumatoid synovitis. The data set is classed as in vivo, patients. The procedure:
The effects of intra-articular injections of rifamycin SV solutions in rheumatoid synovitis were assessed in two clinical trials, one carried out according to an open technique and the other one according to a double-blind experimental design. A total of 35 patients was treated, with an intra-articular injection of 200-500 mg weekly, for a maximum of 10 weeks. The patients were followed up for three years. The following laboratory diagnostic tests were made weekly on the synovial fluids: white blood cell differential count, RA test, Waaler-Rose test, latex test, immunoglobulins, T and B lymphocytes, C3 and C4 levels, glucose, acid phosphatase.
Bioptic examinations were carried out both before and after various months (1-18) after the start of the treatment.

For data set [7], the system named is cultures of synovial membrane fragments. As to the kind of experiment: Inhibiting activity on cultures of synovial membrane fragments. The data set is classed as cell-based. The note with it: needle biopsy, patients with suspected rheumatoid arthritis.
Excerpt: as §1

The next data set deals with rheumatoid arthritis. As to the kind of experiment: Intra-articular injections in rheumatoid arthritis (general statement). The data set is classed as in vivo. The note with it: rheumatoid arthritis patients.
For data set [8] the following is noted: in vivo. The procedure:
as §2, §3, §4, §5, §6, §7, §8
The previous solutions are ten-fold diluted in the case of sera standard lines; the above mentioned operations are thereafter repeated.
Determination of Rifamycin in the Serum […]
as §9

Where [9] appears, read: synovial fluid, end of the treatment.

“Also recorded” adds a separate entry of the source. Structures can show the parent of a compound that is named as a salt.

`COC1C=COC2(C)Oc3c(C)c(O)c4c(O)c(cc(O)c4c3C2=O)NC(=O)C(C)=CC=CC(C)C(O)C(C)C(O)C(C)C(OC(C)=O)C1C` [L-arginine salt of rifamycin SV, rifamycin SV salt with arginine]: the “patients with complete subsidence of effusions and marked clinical improvement” value in data set [1] (500 mg rifamycin SV every seven days intra-articular, of 75 patients) is “seventy-two”. Besides, the “patients with effusional relapse” value in data set [1] (1-6 months after the start of the treatment) was 3 patients. Further, in data set [1] (12 infiltrations), the “patients not responding to 12 infiltrations” value is “one”. In addition, the synovial fluid leukocytes entry in [1] (P<0.001) is “significant decrease”. For the same compound, in data set [1] (P<0.005), the “C3 and C4 complemental fractions in synovial fluid” value is listed as “increase”. For the same compound, in data set [1] (P<0.05), the “relation of number of infiltrations with activity of the local synovitis” value is reported as “strictly related”. In [1] (out of 72), the “patients requiring 1-3 infiltrations to induce effusion subsidence” value was 12 patients, the “patients requiring 4-6 infiltrations to induce effusion subsidence” value worked out at 33 patients and the “patients requiring 7-12 infiltrations to induce effusion subsidence” value is 27 patients. Further, the “pH of 10 percent aqueous solution” value in data set [2] (10 percent aqueous solution) is reported as 6.7. Besides, in data set [3], the “analgesic and anti-inflammatory activity” value is “potent analgesic and anti-inflammatory activity”; the joint function result is “overall improvement of joint function”; the morning stiffness result was “marked reduction, and quite often in a complete subsidence”. For the same compound, in data set [4] (intra-articular), the “synovial fluid levels compared with sodium salt” value is recorded as “marked superiority”. Further, in data set [4], the concentration at 5 min came out at 7160 ± 2100 µg/mL, the concentration at 1 h came out at 3850 ± 800 µg/mL, the concentration at 2 h was determined as 1730 ± 1000 µg/mL and the concentration at 4 h stood at 750 ± 300 µg/mL. Besides, the concentration at 8 h in data set [4] was 173 ± 100 µg/mL. Also, the “rifamycin arginine salt levels vs rifamycin sodium salt” value in data set [5] came to 10 times higher. In addition, in the data set “Solubility of the salts” (listed as arginine salt), the solubility in acetone result was “highly soluble”, the “solubility in ethyl acetate” value is recorded as “sparingly soluble”, the solubility in methanol entry is reported as “highly soluble” and the solubility in water result was “highly soluble”. The solubility in chloroform result in the data set “Solubility of the salts” (chloroform) is “sparingly soluble”. Also, the solubility in water result in the data set “Solubility of the salts” (listed as arginine salt of rifamycin SV) was “optimal water solubility properties”. Moreover, the local tolerability entry in the data set on rabbit's spinal sac was “optimal and definitely better than that observed in the case of commercial solutions”. Moreover, the concentration at 0.25 h in “clinical” (human) was 4930 ± 550 µg/mL.

Regarding `COC1C=COC2(C)Oc3c(C)c(O)c4c(O)c(cc(O)c4c3C2=O)NC(=O)C(C)=CC=CC(C)C(O)C(C)C(O)C(C)C(OC(C)=O)C1C` (centres unmarked) [histidine salt, rifamycin SV salt with histidine], the “pH of 20 percent aqueous solutions” value in data set [2] (20 percent aqueous solutions) is on record as 6.4-6.7. Further, in the data set “Solubility of the salts”, the solubility in acetone result is given as “good”, the “solubility in ethyl acetate” value is on record as “practically nil”, the solubility in methanol entry is recorded as “high” and the solubility in water result is recorded as “high”. For the same compound, the solubility in benzene entry in the data set “Solubility of the salts” (benzene) is given as “practically nil”. Besides, in the data set “Solubility of the salts” (ethanol), the solubility in ethanol result is “good”. Moreover, the solubility in ether result in the data set “Solubility of the salts” (ether) is “practically nil”. Moreover, the solubility in isopropanol result in the data set “Solubility of the salts” (isopropanol) was “practically nil”.

Regarding `CO[C@H]1/C=C/O[C@@]2(C)Oc3c(C)c(O)c4c(O)c(cc(O)c4c3C2=O)NC(=O)/C(C)=C\C=C\[C@H](C)[C@H](O)[C@@H](C)[C@@H](O)[C@@H](C)[C@H](OC(C)=O)[C@@H]1C` [rifamycin SV sodium salt, reference compound], in data set [4], the concentration at 5 min was found to be 6700 ± 200 µg/mL, the concentration at 1 h was determined as 1530 ± 490 µg/mL, the concentration at 2 h is 485 ± 180 µg/mL and the concentration at 4 h amounted to 439 ± 180 µg/mL. Moreover, in [4], the concentration at 8 h was found to be 140 ± 67 µg/mL. Moreover, in [6], the “preservation of lyophilyzed salt” value was “can be preserved for years at room temperature”. In “Solubility of the salts”, the solubility in water entry is “scarcely soluble in water”.

With `COC1C=COC2(C)Oc3c(C)c(O)c4c(O)c(cc(O)c4c3C2=O)NC(=O)C(C)=CC=CC(C)C(O)C(C)C(O)C(C)C(OC(C)=O)C1C` (centres unmarked) [rifamycin SV], in data set [1] (human, in vivo), the initial local pain result is reported as “majority of the patients”, the “patients who had to stop the treatment because of side effect” value is on record as “Two” and the “patients with local retarded painful reaction” value came out at 28 patients. The “patients with reappearance of exudate” value in the data set with rheumatoid synovitis (35 patients, followed up for three years) is listed as “two”. Besides, the disappearance of exudate result in the data set with rheumatoid synovitis (200-500 mg weekly intra-articular, maximum 10 weeks) was “completely disappeared after the third and within the tenth instillation”. The “histological variations of the knees” value with rheumatoid synovitis (biopsies before and 1-18 months after start of treatment) is listed as “reduction of synovial cell infiltrates; also recorded: increase of newly-formed connective tissue; also recorded: surrounding areas with a residual hyperplastic synovia; also recorded: depositions of a new partially organized fibrin”. Further, in the data set on rheumatoid synovitis (end of the treatment), the immunological parameters entry is “No variations”. Also, in the data set on rheumatoid synovitis (setting [9]), the RA cells entry is listed as “significant drop”, the polymorphocyte percentage result is reported as “significant drop” and the total leukocytes result is “significant drop”. In addition, in [7], the “inhibiting activity on cultures of synovial membrane fragments” value is “inhibiting activity of rifamycin SV was demonstrated”. Besides, in the data set “clinical”, the “diffusion of rifamycin SV injected into the joint” value is recorded as “scarce diffusion” and the “rifamycin species present in the synovial fluid” value is “Only rifamycin SV is present in the synovial fluid”. Also, the “resolution of the pathologic condition” value in the data set on rheumatoid arthritis is recorded as “rapid resolution of the pathologic condition as well as to the patient's complete cure”.

In the case of `COC1C=COC2(C)Oc3c(C)c(O)c4c(c3C2=O)C(=O)C=C(NC(=O)C(C)=CC=CC(C)C(O)C(C)C(O)C(C)C(OC(C)=O)C1C)C4=O` (centres unmarked) [rifamycin S], in [8], the “rifamycin species present in the serum” value is reported as “serum also contains rifamycin S”.
